Measured values: patent publication US10052330B2, “Substituted pyrido[3,4-b]pyrazines as Syk inhibitors” (HUTCHISON MEDIPHARMA LIMITED, priority 2011, dated 2018)
Read-outs that look alike come from different tables or passages of the source.

Tests used:
[1] = biological target: Syk kinase (Homo sapiens, UniProt P43405); test: Syk kinase enzymatic assay (Kit-Tyr 2 Peptide); assay type: biochemical; conditions: 8 concentrations, 1 μM down to 0.0003 μM; upper bound of each range is 'less than'; read-out: IC50: Enzymatic Activity (Syk kinase)
[2] = system: RBL-2H3 cells; test: IgE-induced Beta-hexosaminidase secretion in RBL-2H3 cells; assay type: cell-based; conditions: Rattus norvegicus, upper bound of each range is 'less than', read-out: IC50, IgE-induced Beta-hexosaminidase secretion
[3] = RBL-2H3, RBL-2H3 cells sensitized with SPE-7, stimulated with DNP-BSA
[4] = RBL-2H3 cells sensitized with SPE-7, stimulated with DNP-BSA

| IC50 [1] | SMILES | IC50 [2, 3] | IC50 [2, 4] |
| --- | --- | --- | --- |
| 1 to 100 nM | CCS(=O)(=O)N1CCN(c2ccc(-c3cc4nccnc4c(NC[C@@H]4CNCCO4)n3)cc2)CC1 [Compound 435] | 1 to 100 nM |  |
| 1 to 100 nM | CCS(=O)(=O)N1CCN(c2ccc(-c3cc4nccnc4c(NC[C@@H]4CNCCO4)n3)cn2)CC1 [Compound 441] | 100 to 1000 nM |  |
| 1 to 100 nM | CCS(=O)(=O)N1CCN(c2ccc(-c3cc4nccnc4c(NCC4CNCCC4(F)F)n3)cc2)CC1 (stereo not shown) [Compound 445] | 1 to 100 nM |  |
| 1 to 100 nM | CS(=O)(=O)N1CCC(c2ccc(-c3cc4nccnc4c(NCC4CNCCC4(F)F)n3)cc2)CC1 (stereo not shown) [Compound 447] | 1 to 100 nM |  |
| 1 to 100 nM | Cc1cc(-c2cc3nccnc3c(NC[C@@H]3CN(C(=O)C(F)F)CCO3)n2)ccc1N1CCOCC1 [Compound 450] | 1 to 100 nM |  |
| 1 to 100 nM | CN1CCC(c2ccc(-c3cc4nccnc4c(NC[C@@H]4CN(S(C)(=O)=O)CCO4)n3)cc2)CC1 [Compound 460] | 1 to 100 nM |  |
| 1 to 100 nM | CC(=O)N1CCC(c2ccc(-c3cc4nccnc4c(NC[C@@H]4CN(C(=O)C(F)F)CCO4)n3)cc2)CC1 [Compound 470] | 1 to 100 nM |  |
| 1 to 100 nM | CNc1ccc(-c2cc3nccnc3c(NC[C@@H]3CNCCO3)n2)cc1C#N [Compound 473] | 1 to 100 nM |  |
| 1 to 100 nM | CN(C)c1ccc(-c2cc3nccnc3c(NC[C@@H]3CNCCO3)n2)cc1C#N [Compound 474] | 1 to 100 nM |  |
| 1 to 100 nM | CCN1CCN(c2ccc(-c3cc4nccnc4c(NC[C@@H]4CN(S(C)(=O)=O)CCO4)n3)cc2)CC1 [Compound 487] | 100 to 1000 nM |  |
| 1 to 100 nM | CCN1CCN(c2ccc(-c3cc4nccnc4c(NC[C@@H]4CN(C(=O)C(F)F)CCO4)n3)cc2)CC1 [Compound 488] | 1 to 100 nM |  |
| 1 to 100 nM | O=C(C(F)F)N1CCO[C@H](CNc2nc(-c3ccc(N4CCN(CCCO)CC4)cc3)cc3nccnc23)C1 [Compound 490] | 1 to 100 nM |  |
| 1 to 100 nM | CS(=O)(=O)N1CCO[C@H](CNc2nc(-c3ccc(C4CCN(CCCO)CC4)cc3)cc3nccnc23)C1 [Compound 494] | 100 to 1000 nM |  |
| 1 to 100 nM | O=S(=O)(C1CC1)N1CCC(c2ccc(-c3cc4nccnc4c(NC[C@@H]4CNCCO4)n3)cc2)CC1 [Compound 497] | 1 to 100 nM |  |
| 1 to 100 nM | CN(C)S(=O)(=O)N1CCC(c2ccc(-c3cc4nccnc4c(NC[C@@H]4CNCCO4)n3)cc2)CC1 [Compound 499] | 1 to 100 nM |  |
| 1 to 100 nM | CS(=O)(=O)N1CCC(Nc2ccc(-c3cc4nccnc4c(NC[C@@H]4CNCCO4)n3)cc2)CC1 [Compound 500] | 100 to 1000 nM |  |
| 1 to 100 nM | CS(=O)(=O)N1CCN(Cc2ccc(-c3cc4nccnc4c(NC[C@@H]4CNCCO4)n3)cc2)CC1 [Compound 503] | 100 to 1000 nM |  |

The remaining lines, values behind:

| SMILES | IC50 [1] | IC50 [2, 3] | IC50 [2, 4] |
| --- | --- | --- | --- |
| CC(C)(F)C(=O)N1CCN(c2ccc(-c3cc4nccnc4c(NC[C@@H]4CNCCO4)n3)cc2)CC1 [Compound 437] | 1 to 100 nM | 1 to 100 nM |  |
| CC(F)(F)C(=O)N1CCN(c2ccc(-c3cc4nccnc4c(NC[C@@H]4CNCCO4)n3)cc2)CC1 [Compound 438] | 1 to 100 nM | 1 to 100 nM |  |
| O=C(C1CC1(F)F)N1CCN(c2ccc(-c3cc4nccnc4c(NC[C@@H]4CNCCO4)n3)cc2)CC1 (stereo partly shown) [Compound 439] | 1 to 100 nM | 1 to 100 nM |  |
| CS(=O)(=O)N1CCN(c2ccc(-c3cc4nccnc4c(NC[C@@H]4CNCCO4)n3)cn2)CC1 [Compound 440] | 1 to 100 nM | 100 to 1000 nM |  |
| CS(=O)(=O)N1CCN(c2ccc(-c3cc4nccnc4c(NCC4CNCCC4(F)F)n3)cn2)CC1 (stereo not shown) [Compound 442] | 1 to 100 nM | 1 to 100 nM |  |
| CCS(=O)(=O)N1CCN(c2ccc(-c3cc4nccnc4c(NCC4CNCCC4(F)F)n3)cn2)CC1 (stereo not shown) [Compound 443] | 1 to 100 nM | 1 to 100 nM |  |
| CS(=O)(=O)N1CCN(c2ccc(-c3cc4nccnc4c(NCC4CNCCC4(F)F)n3)cc2)CC1 (stereo not shown) [Compound 444] | 1 to 100 nM | 1 to 100 nM |  |
| CCS(=O)(=O)N1CCC(c2ccc(-c3cc4nccnc4c(NC[C@@H]4CNCCO4)n3)cc2)CC1 [Compound 446] | 1 to 100 nM | 1 to 100 nM |  |
| CN1CCN(c2ccc(-c3cc4nccnc4c(NC[C@@H]4CN(C(=O)C(F)F)CCO4)n3)cc2)CC1 [Compound 449, (R)-2,2-difluoro-1-(2-((7-(4-(4-methylpiperazin-1-yl)phenyl)pyrido[4,3-b]pyrazin-5-ylamino)methyl)morpholino)ethanone] | 1 to 100 nM | 1 to 100 nM |  |
| O=C(C(F)F)N1CCO[C@H](CNc2nc(-c3ccc(N4CCOCC4)c(F)c3)cc3nccnc23)C1 [Compound 451] | 1 to 100 nM | 1 to 100 nM |  |
| CN(C)c1ccc(-c2cc3nccnc3c(NC[C@@H]3CN(C(=O)C(F)F)CCO3)n2)cc1 [Compound 455] | 1 to 100 nM | 1 to 100 nM |  |
| CN(C)c1ccc(-c2cc3nccnc3c(NC[C@@H]3CN(C(=O)C(F)F)CCO3)n2)cc1F [Compound 456] | 1 to 100 nM | 1 to 100 nM |  |
| O=C(C(F)F)N1CCO[C@H](CNc2nc(-c3ccc(C4CCNCC4)cc3)cc3nccnc23)C1 [Compound 458] | 1 to 100 nM | 100 to 1000 nM |  |
| CS(=O)(=O)N1CCO[C@H](CNc2nc(-c3ccc(N4CCNCC4)cc3)cc3nccnc23)C1 [Compound 462] | 1 to 100 nM | 100 to 1000 nM |  |
| CN1CCC(c2ccc(-c3cc4nccnc4c(NC[C@@H]4CN(C(=O)C(F)F)CCO4)n3)cc2)CC1 [Compound 463] | 1 to 100 nM | 100 to 1000 nM |  |
| CCN1CCC(c2ccc(-c3cc4nccnc4c(NC[C@@H]4CN(C(=O)C(F)F)CCO4)n3)cc2)CC1 [Compound 464] | 1 to 100 nM | 100 to 1000 nM |  |
| CS(=O)(=O)N1CCC(c2ccc(-c3cc4nccnc4c(NC[C@@H]4CN(C(=O)C(F)F)CCO4)n3)cc2)CC1 [Compound 465] | 1 to 100 nM | 1 to 100 nM |  |
| CC(=O)N1CCN(c2ccc(-c3cc4nccnc4c(NC[C@H]4CN(C(=O)C(F)F)CCO4)n3)cc2)CC1 [Compound 466, (S)-1-(2-((7-(4-phenylpiperazin-1-yl)ethanone[4,3-b]pyrazin-5-ylamino)methyl)morpholino)-2,2-difluoroethanone] | 1 to 100 nM |  | 1 to 100 nM |

| SMILES | IC50 [1] | IC50 [2, 3] | IC50 [2, 4] |
| --- | --- | --- | --- |
| CS(=O)(=O)N1CCN(c2ccc(-c3cc4nccnc4c(NC[C@@H]4CN(C(=O)C(F)F)CCO4)n3)cc2)CC1 [Compound 467] | 1 to 100 nM | 1 to 100 nM |  |
| CC(=O)N1CCC(c2ccc(-c3cc4nccnc4c(NC[C@@H]4CN(S(C)(=O)=O)CCO4)n3)cc2)CC1 [Compound 468] | 1 to 100 nM | 100 to 1000 nM |  |
| CS(=O)(=O)N1CCC(c2ccc(-c3cc4nccnc4c(NC[C@@H]4CN(S(C)(=O)=O)CCO4)n3)cc2)CC1 [Compound 469] | 1 to 100 nM | 1 to 100 nM |  |
| OCCCOc1ccc(-c2cc3nccnc3c(NC[C@@H]3CNCCO3)n2)cc1 [Compound 476, (S)-3-(4-(5-(morpholin-2-ylmethylamino)pyrido[4,3-b]pyrazin-7-yl)phenoxy)propan-1-ol] | 1 to 100 nM | 1 to 100 nM |  |
| CC(=O)OCCCOc1ccc(-c2cc3nccnc3c(NC[C@@H]3CNCCO3)n2)cc1 [Compound 477, (S)-3-(4-(5-(morpholin-2-ylmethylamino)pyrido[4,3-b]pyrazin-7-yl)phenoxy)propyl acetate] | 100 to 1000 nM | 1 to 100 nM |  |
| CCN1CCC(c2ccc(-c3cc4nccnc4c(NC[C@@H]4CN(S(C)(=O)=O)CCO4)n3)cc2)CC1 [Compound 479, (R)-7-(4-(1-ethylpiperidin-4-yl)phenyl)-N-((4-(methylsulfonyl)morpholin-2-yl)methyl)pyrido[4,3-b]pyrazin-5-amine] | 1 to 100 nM |  | 1 to 100 nM |
| CN(CCO)c1ccc(-c2cc3nccnc3c(NCC3CNCCC3(F)F)n2)cc1 (stereo not shown) [Compound 485, 2-((4-(5-((4,4-difluoropiperidin-3-yl)methylamino)pyrido[4,3-b]pyrazin-7-yl)phenyl)(methyl)amino)ethanol] | 1 to 100 nM | 1 to 100 nM |  |
| O=C(C(F)F)N1CCO[C@H](CNc2nc(-c3ccc(N4CCN(CCO)CC4)cc3)cc3nccnc23)C1 [Compound 489] | 1 to 100 nM | 1 to 100 nM |  |
| CS(=O)(=O)N1CCO[C@H](CNc2nc(-c3ccc(C4CCN(CCO)CC4)cc3)cc3nccnc23)C1 [Compound 493] | 1 to 100 nM | 100 to 1000 nM |  |
| CNS(=O)(=O)N1CCC(c2ccc(-c3cc4nccnc4c(NC[C@@H]4CNCCO4)n3)cc2)CC1 [Compound 498] | 1 to 100 nM | 1 to 100 nM |  |
| CS(=O)(=O)N1CCC(c2ccc(-c3cc4nccnc4c(NCC4CNC(=O)CO4)n3)cc2)CC1 (stereo not shown) [Compound 501] | 1 to 100 nM | 1 to 100 nM |  |
| CS(=O)(=O)N1CCCN(c2ccc(-c3cc4nccnc4c(NC[C@@H]4CNCCO4)n3)cc2)CC1 [Compound 502] | 1 to 100 nM | 100 to 1000 nM |  |
| CCC(=O)N1CCC(c2ccc(-c3cc4nccnc4c(NC[C@@H]4CNCCO4)n3)cc2)CC1 [Compound 504] | 1 to 100 nM | 1 to 100 nM |  |
| COCC(=O)N1CCC(c2ccc(-c3cc4nccnc4c(NC[C@@H]4CNCCO4)n3)cc2)CC1 [Compound 505] | 1 to 100 nM | 1 to 100 nM |  |
| NC(=O)N1CCC(c2ccc(-c3cc4nccnc4c(NC[C@@H]4CNCCO4)n3)cc2)CC1 [Compound 506] | 1 to 100 nM | 100 to 1000 nM |  |
| CCS(=O)(=O)N1CCN(c2ccc(-c3cc4nccnc4c(NC[C@@H]4CN(C(C)=O)CCO4)n3)cc2)CC1 [Compound 510] | 1 to 100 nM | 100 to 1000 nM |  |
| O=C(CO)N1CCC(c2ccc(-c3cc4nccnc4c(NC[C@@H]4CNCCO4)n3)cc2)CC1 [Compound 511] | 1 to 100 nM | 1 to 100 nM |  |
| O=C(CCO)N1CCC(c2ccc(-c3cc4nccnc4c(NC[C@@H]4CNCCO4)n3)cc2)CC1 [Compound 512] | 1 to 100 nM | 100 to 1000 nM |  |
